Measured values as given in ChEMBL document CHEMBL1133556, “Carbonic anhydrase inhibitors: water-soluble 4-sulfamoylphenylthioureas as topical intraocular pressure-lowering agents with long-lasting effects” (J Med Chem, 2000).
In brackets after ≈: the same amount, converted by molar mass. Residues, ends and D or L forms follow the SMILES beside them. *: point of attachment. X1 = NS(=O)(=O)c1ccc(NC(=S)*)cc1

What was measured:
Carbonic anhydrase 1 = Carbonic anhydrase 1 (Homo sapiens, UniProt P00915)
Description: Inhibitory activity against human recombinant carbonic anhydrase I

Oryctolagus cuniculus [1] = organism: Oryctolagus cuniculus
Description: Tested in vivo for lowering IOP (Intraocular Pressure)in Normotensive Rabbits at pH 7.0 after treatment with 50 uL, activity at 30 minutes

Oryctolagus cuniculus [2] = organism: Oryctolagus cuniculus; remark: listed apart in the source
Oryctolagus cuniculus [3] = organism: Oryctolagus cuniculus; remark: listed apart in the source
Carbonic anhydrase 2 = Carbonic anhydrase 2 (Homo sapiens, UniProt P00918)
Description: Inhibitory activity against human recombinant carbonic anhydrase II

Carbonic anhydrase 4 = target: T1, Carbonic anhydrase 4 (Bos taurus, UniProt Q95323)
T1 sequence (Q95323 whole entry): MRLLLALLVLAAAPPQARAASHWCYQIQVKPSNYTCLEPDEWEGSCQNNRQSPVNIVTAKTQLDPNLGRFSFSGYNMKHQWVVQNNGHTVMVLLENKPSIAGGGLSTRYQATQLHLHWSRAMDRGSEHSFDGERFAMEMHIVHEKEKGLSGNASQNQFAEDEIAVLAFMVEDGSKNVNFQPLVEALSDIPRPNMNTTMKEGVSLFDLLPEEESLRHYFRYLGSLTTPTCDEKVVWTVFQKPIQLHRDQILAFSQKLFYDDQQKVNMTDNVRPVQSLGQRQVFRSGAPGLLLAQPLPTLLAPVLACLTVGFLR
Description: Inhibitory activity against bovine carbonic anhydrase IV from lung microsomes

Oryctolagus cuniculus [4] = organism: Oryctolagus cuniculus; remark: listed apart in the source
Description: Tested in vitro for transcorneal accession rates (corneal permeability) against cornea with no epithelium

physchem [5] = details: buffer, pH 7.4
Description: (§1) Solubility (in uM) in pH 7.40 at 25 degree C

[6] = octanol/water
Description: Partition coefficient (logD) (chloroform/buffer)

Oryctolagus cuniculus [7] = organism: Oryctolagus cuniculus; remark: listed apart in the source
Description: Tested in vitro for transcorneal accession rates (corneal permeability) against intact cornea

physchem [8] = details: buffer, pH 7.4; remark: listed apart in the source
Description: as §1

Oryctolagus cuniculus [9] = assay: Tested in vivo for lowering IOP (Intraocular Pressure)in Normotensive Rabbits at pH 7.0 after treatment with 50 uL, activity at 90 minutes; format: functional
Oryctolagus cuniculus [10] = assay: Tested in vivo for lowering IOP (Intraocular Pressure)in Normotensive Rabbits at pH 6.5 after treatment with 50 uL, activity at 30 minutes; format: functional
Oryctolagus cuniculus [11] = organism: Oryctolagus cuniculus; remark: listed apart in the source
Description: Tested in vivo for lowering IOP (Intraocular Pressure)in Normotensive Rabbits at pH 6.5 after treatment with 50 uL, activity at 90 minutes

Oryctolagus cuniculus [12] = assay: Tested in vivo for lowering IOP (Intraocular Pressure)in Normotensive Rabbits at pH 6.5 after treatment with 50 uL, activity at 60 minutes; format: functional
Oryctolagus cuniculus [13] = assay: Tested in vivo for lowering IOP (Intraocular Pressure)in Normotensive Rabbits at pH 7.0 after treatment with 50 uL, activity at 60 minutes; format: functional

Chain of Carbonic anhydrase 1 (P00915 whole entry): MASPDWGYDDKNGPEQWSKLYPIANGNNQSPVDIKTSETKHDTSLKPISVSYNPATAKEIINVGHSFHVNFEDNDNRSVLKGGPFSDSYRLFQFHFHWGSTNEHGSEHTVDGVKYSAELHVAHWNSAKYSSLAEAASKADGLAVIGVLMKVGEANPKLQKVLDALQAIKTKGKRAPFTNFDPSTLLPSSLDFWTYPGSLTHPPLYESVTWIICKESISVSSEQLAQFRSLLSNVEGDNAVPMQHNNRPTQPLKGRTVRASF

| Ki (Carbonic anhydrase 1) [nM] | Ki (Carbonic anhydrase 2) [nM] | Ki (Carbonic anhydrase 4) [nM] | Compound | Delta IOP (Oryctolagus cuniculus [1]) [mmHg] | Delta IOP (Oryctolagus cuniculus [2]) [mmHg] | also measured |
| --- | --- | --- | --- | --- | --- | --- |
| 54 | 12 | 36 | CC(/N=C(/S)Nc1ccc(S(N)(=O)=O)cc1)C(=O)O (configuration not stated) | 4 | 5.2 | Delta IOP (Oryctolagus cuniculus [3]): 5 mmHg |
| 20 | 5 | 13 | CC(C)CC(/N=C(\S)Nc1ccc(S(N)(=O)=O)cc1)C(=O)NCC(=O)O (configuration not stated) |  |  |  |
| 22 | 4 | 10 | CCC(C)C(/N=C(\S)Nc1ccc(S(N)(=O)=O)cc1)C(=O)O (configuration not stated) | 2 | 0.3 | Delta IOP (Oryctolagus cuniculus [3]): 4 mmHg |
| 26 | 5 | 13 | NS(=O)(=O)c1ccc(N/C(S)=N/C(Cc2ccc(O)cc2)C(=O)O)cc1 (configuration not stated) |  |  |  |
| 5000 | 185 |  | NS(=O)(=O)c1ccc(N=C=S)cc1 |  |  |  |
| 25 | 5 | 10 | NS(=O)(=O)c1ccc(N/C(S)=N/C(CS)C(=O)O)cc1 (configuration not stated) | 0 | 0 | kin (Oryctolagus cuniculus [4]): 700 h⁻¹; solubility (physchem [5]): 65 mM (≈ 21.8 mg/mL); logD [6]: 0.09; kin (Oryctolagus cuniculus [7]): 300 h⁻¹; Delta IOP (Oryctolagus cuniculus [3]): 0 mmHg |
| 59 | 10 | 27 | NS(=O)(=O)c1ccc(NC(=S)N[C@@H](CC(=O)O)C(=O)N[C@@H](CC(=O)O)C(=O)N[C@@H](CC(=O)O)C(=O)N[C@@H](CC(=O)O)C(=O)O)cc1 (X1-DDDD-OH) |  |  |  |
| 40 | 9 | 23 | NC(=O)CCC(NC(=S)Nc1ccc(S(N)(=O)=O)cc1)C(=O)O (configuration not stated) |  |  |  |
|  |  |  | NS(=O)(=O)c1nnc(NS(=O)(=O)c2ccccc2)s1 [BENZOLAMIDE] |  |  | solubility (physchem [8]): 1.2 mM (≈ 0.384 mg/mL); kin (Oryctolagus cuniculus [4]): 40 h⁻¹; logD [6]: 0.00001; kin (Oryctolagus cuniculus [7]): 10 h⁻¹ |
| 55 | 13 | 29 | NS(=O)(=O)c1ccc(N/C(S)=N\c2ccccc2C(=O)O)cc1 | 4.3 |  | Delta IOP (Oryctolagus cuniculus [9]): 0.9 mmHg; Delta IOP (Oryctolagus cuniculus [3]): 8 mmHg |
| 23 | 3 | 10 | NS(=O)(=O)c1ccc(N/C(S)=N/CCC(=O)NC(Cc2c[nH]cn2)C(=O)O)cc1 (configuration not stated) | 1 | 4 | solubility (physchem [8]): 52 mM (≈ 22.9 mg/mL); kin (Oryctolagus cuniculus [4]): 5000 h⁻¹; logD [6]: 0.725; kin (Oryctolagus cuniculus [7]): 2200 h⁻¹; Delta IOP (Oryctolagus cuniculus [3]): 1.2 mmHg |
| 32 | 5 | 15 | NS(=O)(=O)c1ccc(N/C(S)=N/C(Cc2c[nH]cn2)C(=O)O)cc1 (configuration not stated) | 4 | 4 | Delta IOP (Oryctolagus cuniculus [13]): 4.6 mmHg |
|  |  |  | CC(=O)/N=c1/sc(S(N)(=O)=O)nn1C [METHAZOLAMIDE] |  |  | kin (Oryctolagus cuniculus [4]): 13000 h⁻¹; logD [6]: 0.06; kin (Oryctolagus cuniculus [7]): 1900 h⁻¹ |
| 110 | 25 | 68 | NS(=O)(=O)c1ccc(NC(=S)N2CCCC2C(=O)O)cc1 (configuration not stated) | 0 | 1 | Delta IOP (Oryctolagus cuniculus [3]): 1 mmHg |
| 59 | 16 | 40 | NS(=O)(=O)c1ccc(N/C(S)=N\c2ccc(C(=O)O)cc2)cc1 |  |  |  |
|  |  |  | CCOc1ccc2nc(S(N)(=O)=O)sc2c1 [ETHOXZOLAMIDE] |  |  | solubility (physchem [8]): 0.04 mM (≈ 0.0103 mg/mL) |

| Ki (Carbonic anhydrase 1) [nM] | Ki (Carbonic anhydrase 2) [nM] | Ki (Carbonic anhydrase 4) [nM] | Compound | Delta IOP (Oryctolagus cuniculus [1]) [mmHg] | Delta IOP (Oryctolagus cuniculus [2]) [mmHg] | also measured |
| --- | --- | --- | --- | --- | --- | --- |
| 50 | 15 | 32 | NS(=O)(=O)c1ccc(NC(=S)NC(CC(=O)O)C(=O)NC(CC(=O)O)C(=O)O)cc1 (configuration not stated) |  |  |  |
| 30 | 4 | 16 | CC(O)C(NC(=S)Nc1ccc(S(N)(=O)=O)cc1)C(=O)O (configuration not stated) |  |  |  |
| 27 | 4 | 13 | CSCCC(/N=C(\S)Nc1ccc(S(N)(=O)=O)cc1)C(=O)O (configuration not stated) |  |  |  |
| 54 | 15 | 32 | NS(=O)(=O)c1ccc(NC(=S)NCC(=O)NCC(=O)O)cc1 |  |  |  |
| 62 | 20 | 39 | NS(=O)(=O)c1ccc(N/C(S)=N\CC(=O)O)cc1 | 3 | 0.5 | Delta IOP (Oryctolagus cuniculus [3]): 5.9 mmHg |
| 35 | 7 | 18 | NS(=O)(=O)c1ccc(N/C(S)=N/C(Cc2ccc(O)c(O)c2)C(=O)O)cc1 (configuration not stated) |  |  |  |
| 38 | 10 | 19 | NS(=O)(=O)c1ccc(NC(=S)NC(CCC(=O)O)C(=O)O)cc1 (configuration not stated) |  |  |  |
| 30 | 6 | 13 | NS(=O)(=O)c1ccc(N/C(S)=N/C(Cc2ccccc2)C(=O)O)cc1 (configuration not stated) | 4 | 3 | Delta IOP (Oryctolagus cuniculus [3]): 4.1 mmHg |
| 35 | 8 | 17 | NS(=O)(=O)c1ccc(NC(=S)NC(CC(=O)O)C(=O)O)cc1 (configuration not stated) | 2 | 2 | kin (Oryctolagus cuniculus [4]): 800 h⁻¹; solubility (physchem [5]): 60 mM (≈ 20.8 mg/mL); logD [6]: 0.05; kin (Oryctolagus cuniculus [7]): 100 h⁻¹; Delta IOP (Oryctolagus cuniculus [3]): 2.6 mmHg |
| 21 | 5 | 12 | CC(C)CC(/N=C(\S)Nc1ccc(S(N)(=O)=O)cc1)C(=O)O (configuration not stated) | 5.2 | 6 | Delta IOP (Oryctolagus cuniculus [13]): 6.3 mmHg |
| 23 | 5 | 13 | CC(C)C(/N=C(\S)Nc1ccc(S(N)(=O)=O)cc1)C(=O)O (configuration not stated) |  |  |  |
| 47 | 11 | 35 | NS(=O)(=O)c1ccc(N/C(S)=N\CCC(=O)O)cc1 |  |  |  |
| 50 | 18 | 36 | NS(=O)(=O)c1ccc(N/C(S)=N\c2cccc(C(=O)O)c2)cc1 |  |  |  |
| 115 | 15 | 61 | N=C(N)NCCCC(/N=C(\S)Nc1ccc(S(N)(=O)=O)cc1)C(=O)O (configuration not stated) | 1 | 4 | Delta IOP (Oryctolagus cuniculus [3]): 1.2 mmHg |
| 125 | 42 | 75 | NS(=O)(=O)c1ccc(N/C(S)=N\CCc2ccccc2)cc1 |  |  |  |

| Compound | Ki (Carbonic anhydrase 1) [nM] | Ki (Carbonic anhydrase 2) [nM] | Ki (Carbonic anhydrase 4) [nM] | Delta IOP (Oryctolagus cuniculus [1]) [mmHg] | Delta IOP (Oryctolagus cuniculus [2]) [mmHg] | also measured |
| --- | --- | --- | --- | --- | --- | --- |
| CC(/N=C(/S)Nc1ccc(S(N)(=O)=O)cc1)C(=O)NC(Cc1ccccc1)C(=O)O (configuration not stated) | 23 | 4 | 13 | 0.2 | 3 | Delta IOP (Oryctolagus cuniculus [3]): 0.2 mmHg |
| NS(=O)(=O)c1ccc(N/C(S)=N\CCc2c[nH]cn2)cc1 | 92 | 33 | 56 |  |  | Delta IOP (Oryctolagus cuniculus [10]): 3 mmHg; Delta IOP (Oryctolagus cuniculus [11]): 0 mmHg; Delta IOP (Oryctolagus cuniculus [12]): 0.3 mmHg |
| NS(=O)(=O)c1ccc(N/C(S)=N/C(Cc2c[nH]c3ccccc23)C(=O)O)cc1 (configuration not stated) | 47 | 11 | 24 |  |  |  |
| NS(=O)(=O)c1ccc(NC(=S)NC(Cc2cnc[nH]2)C(=O)NCC(=O)O)cc1 (configuration not stated) | 13 | 1 | 6 |  |  |  |
| NS(=O)(=O)c1ccc(N/C(S)=N\Cc2ccccn2)cc1 | 135 | 45 | 76 |  |  | Delta IOP (Oryctolagus cuniculus [11]): 0.6 mmHg |
| NS(=O)(=O)c1ccc(N/C(S)=N\CCc2ccccn2)cc1 | 124 | 40 | 77 |  |  |  |
| NS(=O)(=O)c1ccc(NC(=S)N2CCC[C@H]2C(=O)NCC(=O)NCC(=O)O)cc1 | 20 | 3 | 11 |  |  |  |
| NS(=O)(=O)c1ccc(N/C(S)=N/C(C(=O)O)C(O)c2ccccc2)cc1 (configuration not stated) | 24 | 2 | 9 | 9 | 9.6 | solubility (physchem [8]): 48 mM (≈ 19 mg/mL); kin (Oryctolagus cuniculus [4]): 12300 h⁻¹; logD [6]: 2.314; kin (Oryctolagus cuniculus [7]): 4900 h⁻¹; Delta IOP (Oryctolagus cuniculus [3]): 10 mmHg |
| NS(=O)(=O)c1ccc(N/C(S)=N/C(C(=O)O)c2ccccc2)cc1 (configuration not stated) | 40 | 6 | 15 |  |  | kin (Oryctolagus cuniculus [4]): 14300 h⁻¹; solubility (physchem [5]): 54 mM (≈ 19.7 mg/mL); logD [6]: 3.652; kin (Oryctolagus cuniculus [7]): 5900 h⁻¹ |
| NS(=O)(=O)c1ccc(NC(S)=NC(Cc2c[nH]cn2)C(=O)NC(Cc2ccccc2)C(=O)O)cc1 (configuration not stated) | 21 | 3 | 9 |  |  |  |
